Source: patent US10654837B2, “Sulphamoylaryl derivatives and use thereof as medicaments for the treatment of liver fibrosis” (Janssen Pharmaceutica NV, priority 2017, dated 2020)

target: T1, 5HTR2B (Homo sapiens, UniProt P41595); test: 5HTR2B antagonist activity, calcium mobilization assay in human Maverick/293 cells (serotonin as agonist); format: cell-based; details: intracellular calcium, emission 525 nm, read-out: Ca assay IC50
T1 construct: host or cells: human Maverick/293 cells
Procedure: The 5HTR2B antagonist activity was measured using human Maverick/293 cells in a calcium mobilization assay. The measurement starting with plating human Maverick/293 cells (log phase) onto 96-well black and incubate at 37° C. overnight, Followed by starving cells for 2 h by changing complete medium to DMEM without FBS, removing the medium from the 96-well plate. Loading staining calcium buffer into each well and incubated the plate at 37° C. for 50 min. After removal of staining calcium buffer, diluted antagonist were added into the well, incubate 15 to 30 minutes. Dispense serotonin as the 5HTR2B agonists into each well. Intracellular calcium concentration is recorded for 80 seconds by monitoring an emission at a wavelength of 525 nm with an excitation wavelength of 485 nm. Inhibition efficiency of the cell line was determined following the equation: % Inhibition=100%−(D−B)/(S−B)*100%. (S: The peak value in the presence of agonist serotonin; D: The peak value in the presence of different dilution compound or serotonin; B: The peak value in the presence of calcium HBSS buffer only). […] A dose response curve was fitted using nonlinear regression model with a sigmoidal dose response. The IC50 was automatically produced by GraphPad Prism 5.0.

T1 sequence (P41595 whole entry): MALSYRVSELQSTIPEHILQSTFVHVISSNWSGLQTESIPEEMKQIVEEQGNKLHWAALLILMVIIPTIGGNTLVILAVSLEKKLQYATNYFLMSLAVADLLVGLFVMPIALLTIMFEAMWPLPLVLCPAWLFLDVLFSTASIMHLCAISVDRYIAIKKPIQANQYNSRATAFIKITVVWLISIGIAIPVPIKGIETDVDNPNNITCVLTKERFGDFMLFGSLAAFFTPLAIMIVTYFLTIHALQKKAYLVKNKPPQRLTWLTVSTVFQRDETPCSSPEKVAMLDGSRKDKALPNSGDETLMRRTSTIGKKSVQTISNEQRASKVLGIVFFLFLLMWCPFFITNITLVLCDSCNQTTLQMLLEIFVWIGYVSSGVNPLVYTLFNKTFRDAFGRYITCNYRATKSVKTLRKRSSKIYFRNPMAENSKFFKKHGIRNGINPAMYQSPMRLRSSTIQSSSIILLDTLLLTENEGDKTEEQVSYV

First: COc1ccc(S(=O)(=O)NC(C)C(N)=O)cc1C(=O)Nc1ccc(F)c(C)c1 (centres unmarked) [Compound 12, 5-(N-(1-Amino-1-oxopropan-2-yl)sulfamoyl)-N-(4-fluoro-3-methylphenyl)-2-methoxybenzamide]
Second: COc1ccc(S(=O)(=O)N[C@@H](C)C(N)=O)cc1C(=O)Nc1ccc(F)c(C)c1 [Compound 12a, (S)-5-(N-(1-Amino-1-oxopropan-2-yl)sulfamoyl)-N-(4-fluoro-3-methylphenyl)-2-methoxybenzamide]
The IC50 of the first is 5.2-fold higher: 9.3 nM for the first, 1.8 nM for the second. The second is the more potent here.

First: COc1ccc(S(=O)(=O)N[C@H](C)C(N)=O)cc1C(=O)Nc1ccc(F)c(C)c1 [Compound 12b, (R)-5-(N-(1-Amino-1-oxopropan-2-yl)sulfamoyl)-N-(4-fluoro-3-methylphenyl)-2-methoxybenzamide]
Second: COc1ccc(S(=O)(=O)N[C@@H](C)C(N)=O)cc1C(=O)Nc1ccc(F)c(C(F)F)c1 [Compound 34a, (S)-5-(N-(1-Amino-1-oxopropan-2-yl)sulfamoyl)-N-(3-(difluoromethyl)-4-fluorophenyl)-2-methoxybenzamide]
The IC50 of the first is 87-fold higher: 122 nM for the first, 1.4 nM for the second.

Going from COc1ccc(S(=O)(=O)NC2(CO)COC2)cc1C(=O)Nc1ccc(F)c(C)c1 [Compound 13, N-(4-Fluoro-3-methylphenyl)-5-(N-(3-(hydroxymethyl)oxetan-3-yl)sulfamoyl)-2-methoxybenzamide] to COc1ccc(S(=O)(=O)NC2(C)COC2)cc1C(=O)Nc1ccc(F)c(C(F)F)c1 [Compound 36, N-(3-(Difluoromethyl)-4-fluorophenyl)-2-methoxy-5-(N-(3-methyloxetan-3-yl)sulfamoyl)benzamide], the IC50 falls from 66.3 nM to 2.7 nM (25-fold). The second is the more potent here.

Going from COc1ccc(S(=O)(=O)NC2CC(C)(C)C2)cc1C(=O)Nc1ccc(F)c(C)c1 [Compound 14, 5-(N-(3,3-Dimethylcyclobutyl)sulfamoyl)-N-(4-fluoro-3-methylphenyl)-2-methoxybenzamide] to COc1ccc(S(=O)(=O)N[C@H]2C[C@@](C)(O)C2)cc1C(=O)Nc1ccc(F)c(C)n1 [Compound 31, N-(5-fluoro-6-methylpyridin-2-yl)-5-(N-((cis)-3-hydroxy-3-methylcyclobutyl)sulfamoyl)-2-methoxybenzamide], the IC50 rises from 14.6 nM to 55 nM (3.8-fold).

Compared with COc1ccc(S(=O)(=O)NC2CCOCC2)cc1C(=O)Nc1ccc(F)c(C)n1 [Compound 17, N-(5-Fluoro-6-methylpyridin-2-yl)-2-methoxy-5-(N-(tetrahydro-2H-pyran-4-yl)sulfamoyl)benzamide], COc1ccc(S(=O)(=O)NC2CC2)cc1C(=O)Nc1ccc(F)c(C)n1 [Compound 21, 5-(N-Cyclopropylsulfamoyl)-N-(5-fluoro-6-methylpyridin-2-yl)-2-methoxy benzamide] is 4.5-fold lower in IC50: 7.2 nM for the first, 1.6 nM for the second.

First: COc1ccc(S(=O)(=O)N[C@H]2CC[C@H](O)CC2)cc1C(=O)Nc1ccc(F)c(C)n1 [Compound 18, (trans)-N-(5-Fluoro-6-methylpyridin-2-yl)-5-(N-(−4-hydroxycyclohexyl)sulfamoyl)-2-methoxybenzamid]
Second: COc1ccc(S(=O)(=O)N[C@H]2CC[C@@H](O)CC2)cc1C(=O)Nc1ccc(F)c(C)n1 [Compound 27, N-(5-Fluoro-6-methylpyridin-2-yl)-5-(N-((cis)-4-hydroxycyclohexyl)sulfamoyl)-2-methoxybenzamide]
The IC50 of the first is 200-fold higher: 222 nM for the first, 1.1 nM for the second. The second is the more potent here.

Going from COc1ccc(S(=O)(=O)NC2CCN(C)CC2)cc1C(=O)Nc1ccc(F)c(C)n1 [Compound 19, N-(5-Fluoro-6-methylpyridin-2-yl)-2-methoxy-5-(N-(1-methylpiperidin-4-yl)sulfamoyl)benzamide] to COc1ccc(S(=O)(=O)NC2CCCCC2)cc1C(=O)Nc1ccc(F)c(C)n1 [Compound 20, 5-(N-Cyclohexylsulfamoyl)-N-(5-fluoro-6-methylpyridin-2-yl)-2-methoxy benzamide], the IC50 falls from 173 nM to 4.4 nM (39-fold).

First: COc1ccc(S(N)(=O)=O)cc1C(=O)Nc1ccc(F)c(C)n1 [Compound 22]
Second: CNS(=O)(=O)c1ccc(OC)c(C(=O)Nc2ccc(F)c(C)n2)c1 [Compound 24]
The IC50 of the first is 13-fold higher: 610 nM for the first, 47 nM for the second. The second is the more potent here.

COc1ccc(S(=O)(=O)NC(C)C)cc1C(=O)Nc1ccc(F)c(C)n1 [Compound 25, N-(5-Fluoro-6-methylpyridin-2-yl)-5-(N-isopropylsulfamoyl)-2-methoxy benzamide] and CCNS(=O)(=O)c1ccc(OC)c(C(=O)Nc2ccc(F)c(C)n2)c1 [Compound 26, 5-(N-Ethylsulfamoyl)-N-(5-fluoro-6-methylpyridin-2-yl)-2-methoxybenzamide] are within 1.5-fold of each other in IC50: 1.4 nM for the first, 1.3 nM for the second.

Going from COc1ccc(S(=O)(=O)N2CCCC2)cc1C(=O)Nc1ccc(F)c(C)n1 [Compound 30, N-(5-Fluoro-6-methylpyridin-2-yl)-2-methoxy-5-(pyrrolidin-1-ylsulfonyl) benzamide] to COc1ccc(S(=O)(=O)NC2CCCC2)cc1C(=O)Nc1ccc(F)cc1 [Compound 51, 5-(N-Cyclopentylsulfamoyl)-N-(4-fluorophenyl)-2-methoxybenzamide], the IC50 falls from 24 nM to 1 nM (24-fold).

First: COc1ccc(S(=O)(=O)N[C@H](C)C(N)=O)cc1C(=O)Nc1ccc(F)c(C(F)F)c1 [Compound 34b, (R)-5-(N-(1-Amino-1-oxopropan-2-yl)sulfamoyl)-N-(3-(difluoromethyl)-4-fluorophenyl)-2-methoxybenzamide]
Second: COc1ccc(S(=O)(=O)N[C@@H](C)CO)cc1C(=O)Nc1ccc(F)c(C(F)F)c1 [Compound 35a, (S)—N-(3-(Difluoromethyl)-4-fluorophenyl)-5-(N-(1-hydroxypropan-2-yl)sulfamoyl)-2-methoxybenzamide]
The IC50 of the first is 240-fold higher: 167 nM for the first, 0.7 nM for the second. The second is the more potent here.

COc1ccc(S(=O)(=O)N[C@H](C)CO)cc1C(=O)Nc1ccc(F)c(C(F)F)c1 [Compound 35b, (R)—N-(3-(Difluoromethyl)-4-fluorophenyl)-5-(N-(1-hydroxypropan-2-yl)sulfamoyl)-2-methoxybenzamide] and COc1ccc(S(=O)(=O)N[C@@H](C)CO)cc1C(=O)Nc1ccc(F)cc1 [Compound 49a, (S)—N-(4-Fluorophenyl)-5-(N-(1-hydroxypropan-2-yl)sulfamoyl)-2-methoxybenzamide] are within 1.5-fold of each other in IC50: 4.3 nM for the first, 3.4 nM for the second.

Compared with COc1ccc(S(=O)(=O)N[C@H]2CCCOC2)cc1C(=O)Nc1ccc(F)c(C(F)F)c1 [Compound 37, (S)—N-(3-(Difluoromethyl)-4-fluorophenyl)-2-methoxy-5-(N-(tetrahydro-2H-pyran-3-yl)sulfamoyl)benzamide], COc1ccc(S(=O)(=O)NC2COC2)cc1C(=O)Nc1ccc(F)c(C(F)F)c1 [Compound 39, N-(3-(Difluoromethyl)-4-fluorophenyl)-2-methoxy-5-(N-(oxetan-3-yl)sulfamoyl)benzamide] is 4.5-fold higher in IC50: 0.8 nM for the first, 3.6 nM for the second. The first is the more potent here.

Compared with COc1ccc(S(=O)(=O)N[C@H]2CC[C@@H](O)CC2)cc1C(=O)Nc1ccc(F)c(C(F)F)c1 [Compound 38, N-(3-(Difluoromethyl)-4-fluorophenyl)-5-(N-((cis)-4-hydroxycyclohexyl)sulfamoyl)-2-methoxybenzamide], COc1ccc(S(=O)(=O)NC2CC[C@H](O)C2)cc1C(=O)Nc1ccc(F)cc1 (some centres unmarked) [Compound 45b] is 3.2-fold higher in IC50: 0.6 nM for the first, 1.9 nM for the second. The first is the more potent here.

Compared with COc1ccc(S(=O)(=O)N[C@H]2CCCOC2)cc1C(=O)Nc1ccc(F)cc1 [Compound 41, (S)—N-(4-Fluorophenyl)-2-methoxy-5-(N-(tetrahydro-2H-pyran-3-yl)sulfamoyl) benzamide], COc1ccc(S(=O)(=O)NC2COC2)cc1C(=O)Nc1ccc(F)cc1 [Compound 43, N-(4-Fluorophenyl)-2-methoxy-5-(N-(oxetan-3-yl)sulfamoyl)benzamide] is 10-fold higher in IC50: 0.7 nM for the first, 7.2 nM for the second.

COc1ccc(S(=O)(=O)NC2(C)COC2)cc1C(=O)Nc1ccc(F)cc1 [Compound 42, N-(4-Fluorophenyl)-2-methoxy-5-(N-(3-methyloxetan-3-yl)sulfamoyl)benzamide] and COc1ccc(S(=O)(=O)NC2CC2)cc1C(=O)Nc1ccc(F)cc1 [Compound 48, 5-(N-Cyclopropylsulfamoyl)-N-(4-fluorophenyl)-2-methoxybenzamide] are within 1.5-fold of each other in IC50: 2.2 nM for the first, 2.7 nM for the second.

COc1ccc(S(=O)(=O)N[C@H](C)C(N)=O)cc1C(=O)Nc1ccc(F)cc1 [Compound 46a, (R)-5-(N-(1-Amino-1-oxopropan-2-yl)sulfamoyl)-N-(4-fluorophenyl)-2-methoxybenzamide] and COc1ccc(S(=O)(=O)N[C@@H](C)C(N)=O)cc1C(=O)Nc1ccc(F)cc1 [Compound 46b, (S)-5-(N-(1-Amino-1-oxopropan-2-yl)sulfamoyl)-N-(4-fluorophenyl)-2-methoxybenzamide] are within 1.5-fold of each other in IC50: 1.5 nM for the first, 1.8 nM for the second.

Compared with COc1ccc(S(=O)(=O)NC2CCC2)cc1C(=O)Nc1ccc(F)cc1 [Compound 47, 5-(N-Cyclobutylsulfamoyl)-N-(4-fluorophenyl)-2-methoxybenzamide], COc1ccc(S(=O)(=O)N[C@H](C)CO)cc1C(=O)Nc1ccc(F)cc1 [Compound 49b, (R)—N-(4-Fluorophenyl)-5-(N-(1-hydroxypropan-2-yl)sulfamoyl)-2-methoxybenzamide] is 18-fold higher in IC50: 0.5 nM for the first, 9 nM for the second. The first is the more potent here.

First: COc1ccc(S(=O)(=O)NC2(C(F)(F)F)CC2)cc1C(=O)Nc1ccc(F)cc1 [Compound 50, N-(4-Fluorophenyl)-2-methoxy-5-(N-(1-(trifluoromethyl)cyclopropyl)sulfamoyl)benzamide]
Second: COc1ccc(S(=O)(=O)N[C@@H](C)CO)cc1C(=O)Nc1ccc(F)cc1 [Compound 52a, (S)—N-(4-fluorophenyl)-5-(N-(1-hydroxypropan-2-yl)sulfamoyl)-2-methoxybenzamide]
The IC50 of the first is 6.6-fold lower: 7.6 nM for the first, 50 nM for the second. The first is the more potent here.
